Experimental data from patent publication US9561228B2 (Celgene Avilomics Research, Inc., priority 2013, dated 2017).

Each molecule was assayed on HCT116 cells (colorectal carcinoma) (assay: Inhibition of cancer cell proliferation, HCT116 (CellTiterGlo, 72 hours)). Conditions: Homo sapiens, HCT-116.
Assay type: cell-based
In short: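 3000 cells per well exposed to 3-fold serial compound dilutions from 5,000 nM (two-fold solution, stock level) for 72 hours at 37° C. CellTiterGlo luminescence converted to cell number via a standard curve; percent inhibition vs untreated wells, GI50 by curve fit.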

GI50, 501 to 999 nM:
C=CC(=O)Nc1cc(C(F)(F)F)ccc1Nc1nc(Nc2cc(OC)ncc2C)ncc1C(F)(F)F [Compound I-323, N-(2-((2-((2-methoxy-5-methylpyridin-4-yl)amino)-5-(trifluoromethyl)pyrimidin-4-yl)amino)-5-(trifluoromethyl)phenyl)acrylamide]
C=CC(=O)Nc1ccccc1Nc1nc(Nc2cc(OC)ccc2C)ncc1C(F)(F)F [Compound I-340, N-(2-((2-((5-methoxy-2-methylphenyl)amino)-5-(trifluoromethyl)pyrimidin-4-yl)amino)phenyl)acrylamide]

GI50, > 1000 nM:
C=CC(=O)Nc1cc(C)ccc1Nc1nc(Nc2cc(C(N)=O)ccn2)ncc1Cl [Compound I-238, 2-((4-((2-acrylamido-4-methylphenyl)amino)-5-chloropyrimidin-2-yl)amino)isonicotinamide]
C=CS(=O)(=O)Nc1cc(C)ccc1Nc1nc(Nc2cc(OC)ncc2C)ncc1C(F)(F)F [Compound I-333, N-(2-((2-((2-methoxy-5-methylpyridin-4-yl)amino)-5-(trifluoromethyl)pyrimidin-4-yl)amino)-5-methylphenyl)ethenesulfonamide]

GI50, 101 to 500 nM:
C=CC(=O)Nc1cc(OC)ccc1Nc1nc(Nc2cc(OC)ncc2C)ncc1Cl [Compound I-242, N-(2-((5-chloro-2-((2-methoxy-5-methylpyridin-4-yl)amino)pyrimidin-4-yl)amino)-5-methoxyphenyl)acrylamide]
C=CC(=O)Nc1cc(OC)ccc1Nc1nc(Nc2cc(Cl)nc(OC)c2)ncc1Cl [Compound I-245, N-(2-((5-chloro-2-((2-chloro-6-methoxypyridin-4-yl)amino)pyrimidin-4-yl)amino)-5-methoxyphenyl)acrylamide]
C=CC(=O)Nc1ccccc1Nc1nc(Nc2cc(Cl)nc(OC)c2)ncc1Cl [Compound I-246, N-(2-((5-chloro-2-((2-chloro-6-methoxypyridin-4-yl)amino)pyrimidin-4-yl)amino)phenyl)acrylamide]
C=CC(=O)Nc1cc(OC)ccc1Nc1nc(Nc2cc(OC)ncc2C)ncc1C(F)(F)F [Compound I-284, N-(5-Methoxy-2-((2-((2-methoxy-5-methylpyridin-4-yl)amino)-5-(trifluoromethyl)pyrimidin-4-yl)amino)phenyl)acrylamide]
C=CC(=O)Nc1ccccc1Nc1nc(Nc2ccnnc2)ncc1C(F)(F)F [Compound I-293, N-(2-((2-(Pyridazin-4-ylamino)-5-(trifluoromethyl)pyrimidin-4-yl)amino)phenyl)acrylamide]
C=CC(=O)Nc1cc(F)ccc1Nc1nc(Nc2cc(OC)ncc2C)ncc1C(F)(F)F [Compound I-322, N-(5-fluoro-2-((2-((2-methoxy-5-methylpyridin-4-yl)amino)-5-(trifluoromethyl)pyrimidin-4-yl)amino)phenyl)acrylamide]
C=CC(=O)Nc1cc(C)ccc1Nc1nc(Nc2cc(OC)nc(N(C)CCOC)c2)ncc1C(F)(F)F [Compound I-336, N-(2-((2-((2-methoxy-6-((2-methoxyethyl)(methyl)amino)pyridin-4-yl)amino)-5-(trifluoromethyl)pyrimidin-4-yl)amino)-5-methylphenyl)acrylamide]
C=CC(=O)Nc1cc(C)ccc1Nc1nc(Nc2cc(OC)nc(N(C)C3CC3)c2)ncc1C(F)(F)F [Compound I-342, N-(2-((2-((2-(cyclopropyl(methyl)amino)-6-methoxypyridin-4-yl)amino)-5-(trifluoromethyl)pyrimidin-4-yl)amino)-5-methylphenyl)acrylamide]

GI50, < 100 nM:
C=CC(=O)Nc1cc(C)ccc1Nc1nc(N[C@H]2CCCN(C(=O)CO)C2)ncc1Cl [Compound I-140, (S)—N-(2-((5-chloro-2-((1-(2-hydroxyacetyl)piperidin-3-yl)amino)pyrimidin-4-yl)amino)-5-methylphenyl)acrylamide]
C=CC(=O)Nc1ccccc1Nc1nc(Nc2cc(OC)nc(N3CCCC3)c2)ncc1C(F)(F)F [Compound I-281, N-(2-((2-((2-Methoxy-6-(pyrrolidin-1-yl)pyridin-4-yl)amino)-5-(trifluoromethyl)pyrimidin-4-yl)amino)phenyl)acrylamide]
C=CC(=O)Nc1ccccc1Nc1nc(Nc2cc(OC)nc(N3CCCCC3)c2)ncc1C(F)(F)F [Compound I-282, N-(2-((2-((2-Methoxy-6-(piperidin-1-yl)pyridin-4-yl)amino)-5-(trifluoromethyl)pyrimidin-4-yl)amino)phenyl)acrylamide]
C=CC(=O)Nc1ccccc1Nc1nc(Nc2cc(OC)nc(OCCOC)c2)ncc1C(F)(F)F [Compound I-283, N-(2-((2-((2-Methoxy-6-(2-methoxyethoxyl)pyridin-4-yl)amino)-5-(trifluoromethyl)pyrimidin-4-yl)amino)phenyl)acrylamide]
C=CC(=O)Nc1ccccc1Nc1nc(Nc2cc(NCCOC)nc(OC)c2)ncc1C(F)(F)F [Compound I-286, N-(2-((2-((2-Methoxy-6-((2-methoxyethyl)amino)pyridin-4-yl)amino)-5-(trifluoromethyl)pyrimidin-4-yl)amino)phenyl)acrylamide]
C=CC(=O)Nc1ccccc1Nc1nc(Nc2cc(OC)nc(N3CCS(=O)(=O)CC3)c2)ncc1C(F)(F)F [Compound I-291, N-(2-((2-((2-(1,1-Dioxidothiomorpholino)-6-methoxypyridin-4-yl)amino)-5-(trifluoromethyl)pyrimidin-4-yl)amino)phenyl)acrylamide]
C=CC(=O)Nc1ccccc1Nc1nc(Nc2cc(N[C@H]3CC[C@@H](O)CC3)nc(OC)c2)ncc1C(F)(F)F [Compound I-292]
C=CC(=O)Nc1cc(C)ccc1Nc1nc(Nc2cc(OC)nc(N3CCN(C(C)=O)CC3)c2)ncc1Cl [Compound I-296, N-(2-((2-((2-(4-acetylpiperazin-1-yl)-6-methoxypyridin-4-yl)amino)-5-chloropyrimidin-4-yl)amino)-5-methylphenyl)acrylamide]
C=CC(=O)Nc1ccccc1Nc1nc(Nc2cc(OC)nc(N3CCN(C)CC3)c2)ncc1C(F)(F)F [Compound I-324, N-(2-((2-((2-methoxy-6-(4-methylpiperazin-1-yl)pyridin-4-yl)amino)-5-(trifluoromethyl)pyrimidin-4-yl)amino)phenyl)acrylamide]
C=CC(=O)Nc1cc(C)ccc1Nc1nc(Nc2cc(OC)nc(N3CCN(C)CC3)c2)ncc1C(F)(F)F [Compound I-325, N-(2-((2-((2-methoxy-6-(4-methylpiperazin-1-yl)pyridin-4-yl)amino)-5-(trifluoromethyl)pyrimidin-4-yl)amino)-5-methylphenyl)acrylamide]
C=CC(=O)Nc1cc(C)ccc1Nc1nc(Nc2cc(N[C@H]3CC[C@@H](O)CC3)nc(OC)c2)ncc1C(F)(F)F [Compound I-326, N-(2-((2-((2-((cis-4-hydroxycyclohexyl)amino)-6-methoxypyridin-4-yl)amino)-5-(trifluoromethyl)pyrimidin-4-yl)amino)-5-methylphenyl)acrylamide]
C=CC(=O)Nc1cc(C)ccc1Nc1nc(Nc2cc(OC)nc(N3CC(O)C3)c2)ncc1C(F)(F)F [Compound I-328, N-(2-((2-((2-(3-hydroxyazetidin-1-yl)-6-methoxypyridin-4-yl)amino)-5-(trifluoromethyl)pyrimidin-4-yl)amino)-5-methylphenyl)acrylamide]
C=CC(=O)Nc1cc(OC)ccc1Nc1nc(Nc2cc(OC)nc(N3CCN(C)CC3)c2)ncc1C(F)(F)F [Compound I-334, N-(5-methoxy-2-((2-((2-methoxy-6-(4-methylpiperazin-1-yl)pyridin-4-yl)amino)-5-(trifluoromethyl)pyrimidin-4-yl)amino)phenyl)acrylamide]
C=CC(=O)Nc1cc(C)ccc1Nc1nc(Nc2cc(NC3CC3)nc(OC)c2)ncc1C(F)(F)F [Compound I-337, N-(2-((2-((2-(cyclopropylamino)-6-methoxypyridin-4-yl)amino)-5-(trifluoromethyl)pyrimidin-4-yl)amino)-5-methylphenyl)acrylamide]
C=CC(=O)Nc1ccccc1Nc1nc(Nc2cc(OC)cc(OC)c2)ncc1C(F)(F)F [Compound I-338, N-(2-((2-((3,5-dimethoxyphenyl)amino)-5-(trifluoromethyl)pyrimidin-4-yl)amino)phenyl)acrylamide]
C=CC(=O)Nc1cc(C)ccc1Nc1nc(Nc2cc(OC)cc(OC)c2)ncc1C(F)(F)F [Compound I-339, N-(2-((2-((3,5-dimethoxyphenyl)amino)-5-(trifluoromethyl)pyrimidin-4-yl)amino)-5-methylphenyl)acrylamide]
